According to US11124485B2, “Deoxyuridine triphosphatase inhibitors containing cyclopropano linkage” (CV6 Therapeutics (NI) Limited, priority 2015, dated 2021):

What was measured:
[1] = test system: colorectal (HCT116 and SW620) cell line models; experiment: MTS growth inhibition assay; type: cell-based; conditions: increasing concentrations of 5-FU between 0 and 100 μmol/L; both colorectal cancer cell lines
Experimental: The Cell Titer AQueous MTS assay (Promega) is carried out according to the manufacturers guidelines. […] The combination effect is determined by the combination index (CI) method utilizing Calcusyn software (Biosoft, Ferguson, Mo.). Fraction affected (FA) is calculated from the percent growth inhibition: FA=(100−% growth inhibition)/100.
Test compounds are evaluated for their antitumor activity in colorectal cancer cells using the MTS growth inhibition assay. HCT116 and SW620 cells are exposed to increasing concentrations of each agent for 72 hours and growth inhibition is directly compared to vehicle-treated controls. The NSCLC cell lines A549 and H1299 are exposed to increasing concentrations of each agent for 72 hours and growth inhibition is directly compared to vehicle-treated controls.
MTS growth inhibition assays are performed to evaluate the effectiveness of the test compounds alone and in combination with the fluoropyrimidine thymidylate synthase (TS) inhibitor 5-fluorouracil (5-FU) at inhibiting the growth of colorectal (HCT116 and SW620) cell line models. […] Simultaneous treatment with increasing concentrations of 5-FU and a test compound at fixed concentrations of 25 μmol/L is determined.

[2] = test system: colorectal (HCT116), breast (MCF-7) and non-small cell lung (H1299, A549, H358 and H460) cell line models; experiment: Colony forming assay; type: cell-based; conditions: increasing concentrations of FUdR between 0.5 and 2.5 μmol/L; all cell lines evaluated
Experimental: Colony forming assay showing the ability of colon (SW620, HCT116), non-small cell lung (A549, H460, H1299 and H358) and breast (MCF7) cancer cells to survive and proliferate following transient 24 hour exposure to test compounds, FUdR and combinations are determined. Specifically, cells are seeded at densities between 50 and 100 cells/well in 24-well plates. Twenty-four hours later, cells are treated with increasing concentrations of a test compound, a fixed dose of FUdR and combinations of these. After 24 hours, drug is removed, cells are rinsed and allowed to outgrow for 10-14 days. At the conclusion of the outgrowth, cells are fixed in 60% ice cold methanol and stained with 0.1% crystal violet, scanned and counted. Data is presented as percentage of untreated controls (mean±SD). Fraction affected and combination indexes are calculated according to the method of Chou and Talalay where <1 is indicative of a synergistic drug interaction.
Colony forming assays are performed to evaluate the effectiveness of test compounds alone and in combination with the fluoropyrimidine thymidylate synthase (TS) inhibitor fluorodeoxyuridine (FUdR) at reducing cancer cell viability in colorectal (HCT116), breast (MCF-7) and non-small cell lung (H1299, A549, H358 and H460) cell line models. […]

In the case of `O=c1[nH]cc(F)c(=O)[nH]1` [Compound 5-FU, 5-fluorouracil], the growth inhibition [1] is reported as “dose-dependent increases in growth inhibition”.
`O=c1[nH]c(=O)n([C@H]2C[C@H](O)[C@@H](CO)O2)cc1F` [FUdR, fluorodeoxyuridine] was tested, and the colonies formed [2] was “dose-dependent decreases in colonies formed”.
